Assay results reported in US9629847B2, “Compositions and methods for treating symptoms of inflammatory related conditions using a combination of an antihistamine and a stimulant” (priority 2011, dated 2017).

Test system: TPA induction of neutrophil MPO activity
Assay: Systemic effect: MPO activity in contralateral vehicle-treated ear after topical application (TPA model)
Source text: These include dexamethasone, a steroid, and indomethasone, a non-steroid anti-inflammatory drug, which targets cycloxygenases.

Compound | effect on MPO activity of contralateral vehicle-treated ear (systemic effect) (topical, increasing concentration) | effect on MPO activity of contralateral vehicle-treated ear (systemic effect) (mouse, in vivo)
COc1ccc2c(c1)c(CC(=O)O)c(C)n2C(=O)c1ccc(Cl)cc1 [indomethasone] | increasing inhibition of MPO activity | 
C[C@@H]1C[C@H]2[C@@H]3CCC4=CC(=O)C=C[C@]4(C)[C@@]3(F)[C@@H](O)C[C@]2(C)[C@@]1(O)C(=O)CO [dexamethasone] |  | increasing inhibition of MPO activity
